One may read the IC50 as the point on the concentration scale where inhibition reaches its midpoint.

Positions of bridges follow the written chain, without caps; N, C: chain ends. Non-standard residues stand in square brackets, D forms with d. Residues, ends and D or L forms follow the SMILES beside them. *: point of attachment. hPhe(3-Cl-4-CF3) = N[C@@H](CCc1ccc(C(F)(F)F)c(Cl)c1)C(=O)O; hPhe(3-F,4-CF3) = N[C@@H](CCc1ccc(C(F)(F)F)c(F)c1)C(=O)O; NMePhe(4-Me) = CN[C@@H](Cc1ccc(C)cc1)C(=O)O; NMeGly(cPent) = CN[C@H](C(=O)O)C1CCCC1; NMeCha = CN[C@@H](CC1CCCCC1)C(=O)O; NMeChg = CN[C@H](C(=O)O)C1CCCCC1; Piperidide(4-Me) = CC1CCN(*)CC1; NMeD = CN[C@@H](CC(=O)O)C(=O)O; NMeL = CN[C@@H](CC(C)C)C(=O)O; Oxazolidin(3-yl) = C1CN(*)CO1; d(β3hP) = O=C(O)C[C@H]1CCCN1; NMeV = CN[C@H](C(=O)O)C(C)C; d(β3hA) = C[C@@H](N)CC(=O)O; Iva = CC[C@](C)(N)C(=O)O; NMeA = CN[C@@H](C)C(=O)O; Piperidide = C1CCN(*)CC1; Ac5c = NC1(C(=O)O)CCCC1; Aze = O=C(O)[C@@H]1CCN1; Ac4c = NC1(C(=O)O)CCC1; X14 = CC1(C)CCN(*)C1; Sar = CNCC(=O)O

Experimental findings from patent publication US12371454B2, “Cyclic peptide compound having Kras inhibitory action” (priority 2019, dated 2025) are described below.

Test [1] deals with T1, Kras and SOS1 (biotin-tagged human Kras loaded with GDP, His-tagged human SOS1) (Homo sapiens, UniProt P01116, G12D).
T1 construct: made in house; host or cells: E. coli (stated for Kras only)
T1 sequence (P01116 1-188 isoform P01116-2 G12D): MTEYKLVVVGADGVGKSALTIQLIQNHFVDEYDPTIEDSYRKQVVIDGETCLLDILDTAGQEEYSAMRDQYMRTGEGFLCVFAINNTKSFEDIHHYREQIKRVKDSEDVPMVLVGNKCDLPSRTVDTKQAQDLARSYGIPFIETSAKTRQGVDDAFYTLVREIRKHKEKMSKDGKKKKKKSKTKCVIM
In words: Protein-protein interaction inhibition between Kras and SOS1 (KrasGl2D-SOS PPI) using AlphaScreen. As to conditions: AlphaScreen; biotin-tagged human Kras loaded with GDP, His-tagged human SOS1; read-out: KRAS G12D-SOS PPI IC50. It is filed as binding. The gist of the method:
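AlphaScreen format: Ni donor beads capture His-SOS1, streptavidin acceptor beads capture biotinylated Kras (E. coli-expressed, GDP-loaded post-purification). Excite 680 nm, read 520-620 nm.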

Test [2] has as its system Human pancreatic cancer cell line AsPC-1. In words: Measurement of AsPC-1 cell growth inhibition (AsPC-1 CGI). Format: cell-based. As to conditions: 96 h. The gist of the method:
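AsPC-1 cells in 15% FBS RPMI-1640 were exposed to test compound for 96 hours at 37° C, with CellTiter-Glo as endpoint.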

For the molecule `CC[C@H](C)[C@@H]1NC(=O)[C@H](CC(C)C)N(C)C(=O)C[C@@H](C(=O)N2CCCCC2)N(C)C(=O)[C@H](C2CCCCC2)N(C)C(=O)[C@](C)(CC)NC(=O)[C@@H]2CCCN2C(=O)[C@H](CCc2ccc(C(F)(F)F)c(Cl)c2)NC(=O)CN(C)C(=O)[C@H](CC2CCCCC2)N(C)C(=O)CN(C)C(=O)CN(C)C1=O` [Compound 1302] ([NMeL]I[Sar][Sar][NMeCha][Sar][hPhe(3-Cl-4-CF3)]P[Iva][NMeChg][NMeD]-Piperidide; lactam N-11), the IC50 is 0.75 nM in test [1] and 100 to 500 nM in test [2].

For `CC[C@H](C)[C@@H]1NC(=O)[C@H](CC(C)C)N(C)C(=O)C[C@@H](C(=O)N2CCCCC2)N(C)C(=O)[C@H](C2CCCCC2)N(C)C(=O)C2(CCCC2)NC(=O)[C@@H]2CCCN2C(=O)[C@H](CCc2ccc(C(F)(F)F)c(Cl)c2)NC(=O)CN(C)C(=O)[C@H](CC2CCCCC2)N(C)C(=O)CN(C)C(=O)CNC1=O` [Compound 1315] ([NMeL]IG[Sar][NMeCha][Sar][hPhe(3-Cl-4-CF3)]P[Ac5c][NMeChg][NMeD]-Piperidide; lactam N-11), the IC50 in test [1] was 1 nM; in test [2], 100 to 500 nM.

For `CC[C@H](C)[C@@H]1NC(=O)[C@H](CC(C)C)N(C)C(=O)C[C@@H](C(=O)N2CCC(C)(C)C2)N(C)C(=O)[C@H](C(C)C)N(C)C(=O)C2(CCCC2)NC(=O)[C@@H]2CCCN2C(=O)[C@H](CCc2ccc(C(F)(F)F)c(Cl)c2)NC(=O)CN(C)C(=O)[C@H](CC2CCCCC2)N(C)C(=O)[C@@H]2CCN2C(=O)[C@H](C)N(C)C1=O` [Compound 1323] ([NMeL]I[NMeA][Aze][NMeCha][Sar][hPhe(3-Cl-4-CF3)]P[Ac5c][NMeV][NMeD]-X14; lactam N-11), the half-maximal inhibitory concentration (IC50) in test [1] is 4.3 nM; in test [2], 100 to 500 nM.

Regarding `CC[C@H](C)[C@@H]1NC(=O)[C@H](CC(C)C)N(C)C(=O)C[C@@H](C(=O)N2CCOC2)N(C)C(=O)[C@H](C(C)C)N(C)C(=O)C2(CCCC2)NC(=O)[C@@H]2CCCN2C(=O)[C@H](CCc2ccc(C(F)(F)F)c(Cl)c2)NC(=O)CN(C)C(=O)[C@H](CC2CCCCC2)N(C)C(=O)[C@@H]2CCN2C(=O)[C@H](C)N(C)C1=O` [Compound 1329] ([NMeL]I[NMeA][Aze][NMeCha][Sar][hPhe(3-Cl-4-CF3)]P[Ac5c][NMeV][NMeD]-{Oxazolidin(3-yl)}; lactam N-11), the half-maximal inhibitory concentration (IC50) in test [1] is 1.7 nM; in test [2] it was 100 to 500 nM.

Turning to `CC[C@H](C)[C@@H]1NC(=O)[C@H](CC(C)C)N(C)C(=O)C[C@H]2CCCN2C(=O)[C@H](C(C)C)N(C)C(=O)C2(CCCC2)NC(=O)[C@@H]2CCCN2C(=O)[C@H](CCc2ccc(C(F)(F)F)c(Cl)c2)NC(=O)CN(C)C(=O)[C@H](CC2CCCCC2)N(C)C(=O)[C@@H]2CCN2C(=O)[C@H](C)N(C)C1=O` [Compound 1332] (cyclo([Ac5c][NMeV][d(β3hP)][NMeL]I[NMeA][Aze][NMeCha][Sar][hPhe(3-Cl-4-CF3)]P)), the IC50 in test [1] is 23 nM; in test [2] it was 100 to 500 nM.

As to `CC[C@H](C)[C@@H]1NC(=O)[C@H](CC(C)C)N(C)C(=O)C[C@@H](C(=O)N2CCC(C)CC2)N(C)C(=O)[C@H](C2CCCCC2)N(C)C(=O)C2(CCCC2)NC(=O)[C@@H]2CCCN2C(=O)[C@H](CCc2ccc(C(F)(F)F)c(Cl)c2)NC(=O)CN(C)C(=O)[C@H](CC2CCCCC2)N(C)C(=O)CN(C)C(=O)CN(C)C1=O` [Compound 1347] ([NMeL]I[Sar][Sar][NMeCha][Sar][hPhe(3-Cl-4-CF3)]P[Ac5c][NMeChg][NMeD]-{Piperidide(4-Me)}; lactam N-11), the IC50 in test [1] was 1.3 nM; in test [2], 100 to 500 nM.

Regarding `CC[C@H](C)[C@@H]1NC(=O)[C@H](CC(C)C)N(C)C(=O)C[C@@H](C(=O)N2CCCCC2)N(C)C(=O)[C@H](C(C)C)N(C)C(=O)C2(CCCC2)NC(=O)[C@@H]2CCCN2C(=O)[C@H](CCc2ccc(C(F)(F)F)c(F)c2)NC(=O)CN(C)C(=O)[C@H](CC2CCCCC2)N(C)C(=O)CN(C)C(=O)CN(C)C1=O` [Compound 1454] ([NMeL]I[Sar][Sar][NMeCha][Sar][hPhe(3-F,4-CF3)]P[Ac5c][NMeV][NMeD]-Piperidide; lactam N-11), the IC50 in test [1] is 11 nM; in test [2] it was 100 to 500 nM.

Turning to `CC[C@H](C)[C@@H]1NC(=O)[C@H](CC(C)C)N(C)C(=O)C[C@@H](C)NC(=O)[C@H](C(C)C)N(C)C(=O)C2(CCCC2)NC(=O)[C@@H]2CCCN2C(=O)[C@H](CCc2ccc(C(F)(F)F)c(Cl)c2)NC(=O)CN(C)C(=O)[C@H](CC2CCCCC2)N(C)C(=O)CN(C)C(=O)CN(C)C1=O` [Compound 1457] (cyclo([Ac5c][NMeV][d(β3hA)][NMeL]I[Sar][Sar][NMeCha][Sar][hPhe(3-Cl-4-CF3)]P)), the IC50 in test [1] was 11 nM; in test [2] it was 100 to 500 nM.

On to `CC(C)C[C@H]1C(=O)N[C@@H](C(C)C)C(=O)N(C)CC(=O)N(C)CC(=O)N(C)[C@@H](CC2CCCCC2)C(=O)N(C)CC(=O)N[C@@H](CCc2ccc(C(F)(F)F)c(F)c2)C(=O)N2CCC[C@H]2C(=O)NC2(CCCC2)C(=O)N(C)[C@@H](CC(C)C)C(=O)N(C)[C@H](C(=O)N2CCCCC2)CC(=O)N1C` [Compound 1458] ([NMeL]V[Sar][Sar][NMeCha][Sar][hPhe(3-F,4-CF3)]P[Ac5c][NMeL][NMeD]-Piperidide; lactam N-11), for which the values for the IC50 in test [1] and in test [2] were 7.2 nM and 100 to 500 nM, respectively.

On to `CC[C@H](C)[C@@H]1NC(=O)[C@H](C)N(C)C(=O)C[C@@H](C)NC(=O)[C@H](C2CCCC2)N(C)C(=O)C2(CCCC2)NC(=O)[C@@H]2CCCN2C(=O)[C@H](CCc2ccc(C(F)(F)F)c(Cl)c2)NC(=O)CN(C)C(=O)[C@H](Cc2ccc(C)cc2)N(C)C(=O)[C@@H]2CCN2C(=O)CN(C)C1=O` [Compound 1462] (cyclo([Ac5c][NMeGly(cPent)][d(β3hA)][NMeA]I[Sar][Aze][NMePhe(4-Me)][Sar][hPhe(3-Cl-4-CF3)]P)), for which the IC50 was 0.79 nM in test [1] and 100 to 500 nM in test [2].

In the case of `CC[C@H](C)[C@@H]1NC(=O)[C@H](C)N(C)C(=O)C[C@@H](C)NC(=O)[C@H](C2CCCC2)N(C)C(=O)C2(CCC2)NC(=O)[C@@H]2CCCN2C(=O)[C@H](CCc2ccc(C(F)(F)F)c(Cl)c2)NC(=O)CN(C)C(=O)[C@H](Cc2ccc(C)cc2)N(C)C(=O)CN(C)C(=O)CN(C)C1=O` [Compound 1466] (cyclo([Ac4c][NMeGly(cPent)][d(β3hA)][NMeA]I[Sar][Sar][NMePhe(4-Me)][Sar][hPhe(3-Cl-4-CF3)]P)), the results for the IC50 in test [1] and in test [2] were 1 nM and 100 to 500 nM, respectively.

For the molecule `CC[C@H](C)[C@@H]1NC(=O)[C@H](CC(C)C)N(C)C(=O)C[C@@H](C)NC(=O)[C@H](C2CCCC2)N(C)C(=O)C2(CCC2)NC(=O)[C@@H]2CCCN2C(=O)[C@H](CCc2ccc(C(F)(F)F)c(Cl)c2)NC(=O)CN(C)C(=O)[C@H](Cc2ccc(C)cc2)N(C)C(=O)CN(C)C(=O)CN(C)C1=O` [Compound 1498] (cyclo([Ac4c][NMeGly(cPent)][d(β3hA)][NMeL]I[Sar][Sar][NMePhe(4-Me)][Sar][hPhe(3-Cl-4-CF3)]P)), the concentration for half-maximal inhibition (IC50) in test [1] was 1.7 nM; in test [2], 100 to 500 nM.

On to `CC[C@H](C)[C@@H]1NC(=O)[C@H](CC(C)C)N(C)C(=O)C[C@@H](C)NC(=O)[C@H](C2CCCC2)N(C)C(=O)C2(CCCC2)NC(=O)[C@@H]2CCCN2C(=O)[C@H](CCc2ccc(C(F)(F)F)c(Cl)c2)NC(=O)CN(C)C(=O)[C@H](Cc2ccc(C)cc2)N(C)C(=O)[C@@H]2CCN2C(=O)CN(C)C1=O` [Compound 1500] (cyclo([Ac5c][NMeGly(cPent)][d(β3hA)][NMeL]I[Sar][Aze][NMePhe(4-Me)][Sar][hPhe(3-Cl-4-CF3)]P)), for which the IC50 in test [1] is 3.9 nM; in test [2], 100 to 500 nM.
